This is an account of results in patent US20230399289A1, “ITACONIC ACID DERIVATIVES” (Sitryx Therapeutics Limited, priority 2020, published 2023).

Molecules are shown by their SMILES. Structures can show the parent of a compound that is named as a salt.

Series [1] has as its system hepatocytes. Description: Hepatocyte stability assay, human. To be noted: 10 μM compound, 0.5×10^6 cells/mL, 60 min. Type of series: in vitro ADME. The text has this:
(§1) Defrosted cryo-preserved hepatocytes (viability>70%) may be used to determine the metabolic stability of a compound via calculation of intrinsic clearance (Clint; a measure of the removal of a compound from the liver in the absence of blood flow and cell binding). Clearance data are particularly important for in vitro work as they can be used in combination with in vivo data to predict the half-life and oral bioavailability of a drug.
(§2) The metabolic stability in hepatocytes assay involves a time-dependent reaction using both positive and negative controls. The cells were pre-incubated at 37° C. and spiked with test compound (and positive control); samples were taken at pre-determined time intervals and analysed to monitor the change in concentration of the initial drug compound over 60 minutes. A buffer incubation reaction (with no hepatocytes present) acted as a negative control and two cocktail solutions, containing compounds with known high and low clearance values (verapamil/7-hydroxycoumarin and propranolol/diltiazem), acted as positive controls. • 1. The assay was run with a cell concentration of 0.5×10^6 cells/mL in Leibovitz buffer. • 2. All compounds and controls were run in duplicate. • 3. Compound concentration was 10 μM. • 4. All compounds and controls were incubated with both cells and buffer to show turnover was due to hepatic metabolism. • 5. All wells on the incubation plate had 326.7 μL of either cells or buffer added. • 6. Prior to assay, cell and buffer-only incubation plates were preincubated for 10 mins at 37° C. • 7. The assay was initiated by adding compounds, 3.3 μL of 1 mM in 10% DMSO-90% Buffer; final DMSO concentration is 0.1%. • 8. Samples were taken at regular timepoints (0, 5, 10, 20, 40, 60 min) until 60 mins. • 9. Sample volume was 40 μL and was added to 160 μL of crash solvent (acetonitrile with internal standard) and stored on ice. • 10. At the end of the assay, the crash plates were centrifuged at 3500 rpm for 20 mins at 4° C. • 11. 80 μL of clear supernatant was removed and mixed with 80 μL of deionised water before being analysed by LC-MS/MS.
(§3) Raw LC-MS/MS data was exported to, and analysed in, Microsoft Excel for determination of intrinsic clearance. The percentage remaining of a compound was monitored using the peak area of the initial concentration as 100%. Intrinsic clearance and half-life values were calculated using a graph of the natural log of percentage remaining versus the time of reaction in minutes. Half-life (min) and intrinsic clearance (Clint in μL min^−1 10^−6 cells) values were calculated using the gradient of the graph (the elimination rate constant, k) and Equations 1 and 2.

Series [2] deals with hepatocytes. Kind of series: Hepatocyte stability assay, mouse. Type of series: in vitro ADME. The settings on record: 10 μM compound, 0.5×10^6 cells/mL, 60 min.
From the text: as §1, §2, §3

In series [3] the test system is IL-1β cytokine output from THP-1 cells. Description: THP-1 AlphaLISA IL-1β cytokine assay. Type of series: cell-based. To be noted: Homo sapiens, THP-1, differentiated THP-1 cells, LPS 24 hr then Nigericin 1 hour. The procedure:
(§4) Measuring Inhibitory Effects on IL-1β and IL-6 Cytokine Output from THP-1s
(§5) The cytokine inhibition profiles of compounds of formula (I) were determined in a differentiated THP-1 cell assay. All assays were performed in RPMI-1640 growth medium (Gibco), supplemented with 10% fetal bovine serum (FBS; Gibco), 1% penicillin-streptomycin and 1% sodium pyruvate unless specified otherwise. The IL-1β and IL-6 cytokine inhibition assays were each run in a background of differentiated THP-1 cells as described below. All reagents described were from Sigma-Aldrich unless specified otherwise. Compounds were prepared as 10 mM DMSO stocks.
(§6) THP-1 cells were expanded as a suspension up to 80% confluence in appropriate growth medium. Cells were harvested, suspended, and treated with an appropriate concentration of phorbol 12-myristate 13-acetate (PMA) over a 72 hr period (37° C./5% CO2).
(§7) Following 72 hrs of THP-1 cell incubation, cellular medium was removed and replaced with fresh growth media containing 1% of FBS. Working concentrations of compounds were prepared separately in 10% FBS treated growth medium and pre-incubated with the cells for 30 minutes (37° C./5% CO2). Following the 30 minute compound pre-incubation, THP-1s were treated with an appropriate concentration of LPS and the THP-1s were subsequently incubated for a 24 hr period (37° C./5% CO2). An appropriate final concentration of Nigericin was then dispensed into the THP-1 plates and incubated for 1 hour (37° C./5% CO2) before THP-1 supernatants were harvested and collected in separate polypropylene 96-well holding plates.
(§8) Reagents from each of the […] and IL-6 commercial kits (Perkin Elmer) were prepared and run according to the manufacturer's instructions. Subsequently, fluorescence signal detection in a microplate reader was measured (EnVision® Multilabel Reader, Perkin Elmer).
(§9) Percentage inhibition was calculated per cytokine by normalising the sample data to the high and low controls used within each plate (+/−LPS respectively). Percentage inhibition was then plotted against compound concentration and the 50% inhibitory concentration (IC50) was determined from the resultant concentration-response curve.

Series [4] is described as follows: Hepatocyte stability assay, human. The settings on record: cryopreserved hepatocytes, 10 μM compound, 0.5×10^6 cells/mL, 60 min, read-out: T½. The series is classed as in vitro ADME.
From the text: as §1, §2, §3

Series [5] is described as follows: Hepatocyte stability assay, mouse. To be noted: cryopreserved hepatocytes, 10 μM compound, 0.5×10^6 cells/mL, 60 min, read-out: T½. Type of series: in vitro ADME.
From the text: as §1, §2, §3

In series [6] the test system is IL-6 cytokine output from THP-1 cells. Kind of series: THP-1 AlphaLISA IL-6 cytokine assay. Type of series: cell-based. The settings on record: Homo sapiens, THP-1, differentiated THP-1 cells, LPS 24 hr then Nigericin 1 hour. The protocol: as §4, §5, §6, §7, §8, §9
The test system of series [7] is NRF2 (nuclear factor erythroid 2-related factor 2). Description: NRF2 +/−GSH activation assay (DiscoverX PathHunter NRF2 translocation kit, U2OS cells). The settings on record: Homo sapiens; for Emax: U2OS, normalised to dimethyl fumarate high control; for EC50: U2OS PathHunter cells, 6 hours. Type of series: cell-based.
Setting [8] is: +GSH, 30 minute compound-GSH pre-incubation.

In the case of `C=C(CC(=O)OCCCCCCCC)C(=O)O` [4-octyl itaconate, reference compound], in series [1], the CIint turned out to be 401 μL min^−1 10^−6 cells and the T½ is on record as 4 min. Further, in series [2], the CIint is reported as 351 μL min^−1 10^−6 cells and the T½ worked out at 4 min.

The IC50 is the point on the concentration scale where inhibition reaches its midpoint. The low end stands for greater potency in that assay, the high end for weaker potency in that assay. Compound `C=C(CC(=O)OC1(c2cccc(Cl)c2Cl)CCC1)C(=O)OCC(=O)O` [Example 7, 2-((4-(1-(2,3-dichlorophenyl)cyclobutoxy)-2-methylene-4-oxobutanoyl)oxy)acetic acid] showed a half-maximal inhibitory concentration (IC50) in series [3] of 17.4 µM. In addition, the half-life at 10 μM was found to be 151 min in series [4] and 18 min in series [5]. Moreover, the CIint was 10 μL min^−1 10^−6 cells in series [1] and 107 μL min^−1 10^−6 cells in series [2].

`C=C(CC(=O)OC1(c2cc(F)c(F)c(F)c2)CCC1)C(=O)OCC(=O)O` [Example 14, 2-((2-methylene-4-oxo-4-(1-(3,4,5-trifluorophenyl)cyclobutoxy)butanoyl)oxy)acetic acid] came in with an IC50 in series [3] of 19.9 µM.

As for `C=C(CC(=O)OC1(c2cc(Cl)cc(C(F)(F)F)c2)CCC1)C(=O)OCC(=O)O` [Example 15, 2-((4-(1-(3-chloro-5-(trifluoromethyl)phenyl)cyclobutoxy)-2-methylene-4-oxobutanoyl)oxy)acetic acid], the IC50 in series [3] came out at 8.6 µM.

Turning to `C=C(CC(=O)OC1(c2ccc(C(F)(F)F)c(Cl)c2)CCC1)C(=O)OCC(=O)O` [Example 16, 2-((4-(1-(3-chloro-4-(trifluoromethyl)phenyl)cyclobutoxy)-2-methylene-4-oxobutanoyl)oxy)acetic acid], the IC50 in series [3] is 4.9 µM. For the same compound, the half-life at 10 μM worked out at 209 min in series [4] and 25 min in series [5]. Further, the values for the CIint in series [1] and in series [2] were 7 μL min^−1 10^−6 cells and 61 μL min^−1 10^−6 cells, respectively.

In turn, `C=C(CC(=O)OC1(c2cc(Cl)c(F)c(Cl)c2)CCC1)C(=O)OCC(=O)O` [Example 17, 2-((4-(1-(3,5-dichloro-4-fluorophenyl)cyclobutoxy)-2-methylene-4-oxobutanoyl)oxy)acetic acid] yielded an IC50 in series [3] of 4.9 µM. Further, the half-life at 10 μM in series [4] amounted to 188 min; in series [5], 21 min. Moreover, the figures for the CIint in series [1] and in series [2] were 8 μL min^−1 10^−6 cells and 73 μL min^−1 10^−6 cells, respectively.

One may read the Emax as the greatest response seen or fitted, relative to the assay's reference. What is called EC50 is the concentration that produces a half-maximal response. Low readings indicate higher potency in that assay, high ones lower potency in that assay. Turning to `C=C(CC(=O)OC1(c2ccc(C(F)(F)F)cc2)CCC1)C(=O)O[C@@H](CC(=O)O)C(F)(F)F` [Example 21, (S)-4,4,4-trifluoro-3-((2-methylene-4-oxo-4-(1-(4-(trifluoromethyl)phenyl)cyclobutoxy)butanoyl)oxy)butanoic acid], the half-inhibitory concentration (IC50) was 1 µM in series [3] and 0.9 µM in series [6]. For the same compound, the maximal response (Emax) in series [7] (+GSH) turned out to be 53%; in series [7] (−GSH) it was 170%. Moreover, the 50% effective concentration (EC50) stood at 5.7 µM in series [7] (setting [8]) and 1.7 µM in series [7] (−GSH).

For the compound `C=C(CC(=O)OC1(c2ccc(C(F)(F)F)cc2)CCC1)C(=O)O[C@H](CC(=O)O)C(F)(F)F` [Example 23, (R)-4,4,4-trifluoro-3-((2-methylene-4-oxo-4-(1-(4-(trifluoromethyl)phenyl)cyclobutoxy)butanoyl)oxy)butanoic acid], the IC50 in series [3] is 1.5 µM; in series [6] it was 1.2 µM. In addition, the maximal effect (Emax) was found to be 54% in series [7] (+GSH) and 141% in series [7] (−GSH). For the same compound, the EC50 came to 5.3 µM in series [7] (setting [8]) and 2.3 µM in series [7] (−GSH).

Take `C=C(CC(=O)OC1(Cc2ccc(Cl)cc2)CCC1)C(=O)OCC(=O)O` [Example 24, 2-((4-(1-(4-chlorobenzyl)cyclobutoxy)-2-methylene-4-oxobutanoyl)oxy)acetic acid]: the IC50 in series [3] was found to be 14.5 µM; in series [6], 11.3 µM. Besides, the Emax in series [7] (+GSH) was 119%; in series [7] (−GSH), 194%. For the same compound, the EC50 in series [7] (setting [8]) amounted to 28.3 µM; in series [7] (−GSH) it was 29.6 µM.

As to `C=C(CC(=O)OC1(c2ccc(C(F)(F)F)cc2)CCCC1)C(=O)OCC(=O)O` [Example 25, 2-((2-methylene-4-oxo-4-((1-(4-(trifluoromethyl)phenyl)cyclopentyl)oxy)butanoyl)oxy)acetic acid], the values for the IC50 in series [3] and in series [6] were 17.4 µM and 15.9 µM, respectively.

With `C=C(CC(=O)OC1(c2ccc(-c3ccc(F)cc3)cc2)CCC1)C(=O)OCC(=O)O` [Example 26, 2-((4-(1-(4′-fluoro-[1,1′-biphenyl]-4-yl)cyclobutoxy)-2-methylene-4-oxobutanoyl)oxy)acetic acid], the IC50 in series [3] is 46.9 µM; in series [6], 3.9 µM.

Consider `C=C(CC(=O)OC1(Cc2ccc(C(F)(F)F)cc2)CC1)C(=O)OCC(=O)O` [Example 27, 2-((2-methylene-4-oxo-4-(1-(4-(trifluoromethyl)benzyl)cyclopropoxy)butanoyl)oxy)acetic acid], for which the figures for the concentration for half-maximal inhibition (IC50) in series [3] and in series [6] were 16.4 µM and 14.1 µM, respectively.

Regarding `C=C(CC(=O)OC1(C#Cc2ccc(C(F)(F)F)cc2)CCC1)C(=O)OCC(=O)O` [Example 28, 2-((2-methylene-4-oxo-4-(1-((4-(trifluoromethyl)phenyl)ethynyl)cyclobutoxy)butanoyl)oxy)acetic acid], the IC50 in series [3] worked out at 11.3 µM; in series [6], 3.3 µM.

Take `C=C(CC(=O)OC1(c2ccc(C(F)(F)F)cc2)COC1)C(=O)OCC(=O)O` [Example 29, 2-((2-methylene-4-oxo-4-((3-(4-(trifluoromethyl)phenyl)oxetan-3-yl)oxy)butanoyl)oxy)acetic acid]: the IC50 in series [3] was determined as 43.2 µM; in series [6] it was 45.2 µM.

In the case of `C=C(CC(=O)OC1(c2ccc(C(F)(F)F)cc2)CC(F)(F)C1)C(=O)OCC(=O)O` [Example 31, 2-((4-(3,3-difluoro-1-(4-(trifluoromethyl)phenyl)cyclobutoxy)-2-methylene-4-oxobutanoyl)oxy)acetic acid], the IC50 in series [3] was 14.4 µM; in series [6], 16.5 µM. Also, the figures for the Emax in series [7] (+GSH) and in series [7] (−GSH) were 108% and 182%, respectively. Further, the EC50 came out at 30.8 µM in series [7] (setting [8]) and 21.7 µM in series [7] (−GSH).

On to `COC(=O)/C=C/C(=O)OC` [dimethyl fumarate, reference compound], for which the figures for the Emax in series [7] (+GSH) and in series [7] (−GSH) were 19% and 100%, respectively. Moreover, the EC50 in series [7] (setting [8]) is over 100 µM; in series [7] (−GSH), 6 µM.

As to `C=C(CC(=O)OC)C(=O)OC` [dimethyl itaconate, reference compound], the IC50 in series [3] and in series [6] was over 100 µM throughout.
